What was measured:
Assay in all cases: relative viability (nuclei count vs DMSO), 5 days (fraction); higher = more cells survive
[1] = compound: C1COCCN1C2=NC(=NC3=C2OC4=C3C=CC=N4)C5=CC(=CC=C5)NC(=O)C6=CN=C(C=C6)N + C[C@]1(O)C[C@@H](c2nc(-c3ccc4ccc(-c5ccccc5)nc4c3)c3c(N)nccn32)C1 [Linsitinib] (partner 1 µM)
How it was run: (§1)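 Dosing by pin tool came one day after lung cancer cell lines were seeded in 1536-well plates, using either one drug or a fixed anchor-drug dose plus five library-drug doses (not always all listed) in √10 steps. After 5 days, nuclei were counted on 4× images. Relative viability is treated-well nuclei count divided by vehicle-well nuclei count, and values are medians of duplicate plates.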

[2] = compound: C1COCCN1C2=NC(=NC3=C2OC4=C3C=CC=N4)C5=CC(=CC=C5)NC(=O)C6=CN=C(C=C6)N + O=C(c1cc(Cc2n[nH]c(=O)c3ccccc23)ccc1F)N1CCN(C(=O)C2CC2)CC1 [Olaparib] (partner 8 µM)
How it was run: as §1

[3] = compound: CN1CCC(CNc2ccc3ncc(-c4cccc(OC(F)(F)F)c4)n3n2)CC1 [SGI-1776] + Cc1nc(NC(=O)N2CCC[C@H]2C(N)=O)sc1-c1ccnc(C(C)(C)C(F)(F)F)c1 [Alpelisib] (partner 2 µM)
How it was run: as §1

[4] = compound: CN1CCC(CNc2ccc3ncc(-c4cccc(OC(F)(F)F)c4)n3n2)CC1 [SGI-1776] + Cc1nc(Nc2ncc(C(=O)Nc3c(C)cccc3Cl)s2)cc(N2CCN(CCO)CC2)n1 [Dasatinib] (partner 0.075 µM)
How it was run: as §1

| Cell Line | relative viability ([1]; first compound 0.02 µM) | relative viability ([1]; first compound 0.06325 µM) | relative viability ([1]; first compound 0.2 µM) | relative viability ([1]; first compound 0.6325 µM) | relative viability ([1]; first compound 2 µM) | relative viability ([2]; first compound 0.02 µM) | relative viability ([2]; first compound 0.06325 µM) | relative viability ([2]; first compound 0.2 µM) | relative viability ([2]; first compound 0.6325 µM) | relative viability ([2]; first compound 2 µM) | relative viability ([3]; first compound 0.08 µM) | relative viability ([3]; first compound 0.8 µM) | relative viability ([3]; first compound 2.53 µM) | relative viability ([3]; first compound 8 µM) | relative viability ([4]; first compound 0.08 µM) | relative viability ([4]; first compound 0.8 µM) | relative viability ([4]; first compound 2.53 µM) | relative viability ([4]; first compound 8 µM) |
| --- | --- | --- | --- | --- | --- | --- | --- | --- | --- | --- | --- | --- | --- | --- | --- | --- | --- | --- |
| NCI-H661 | 0.533 | 0.645 | 0.645 | 0.421 | 0.386 | 0.789 | 0.832 | 0.717 | 0.876 | 0.426 | 0.81 | 1.06 | 0.592 | 0.479 | 1 | 0.979 | 0.837 | 0.692 |
| NCI-H1734 | 0.865 | 0.938 | 0.86 | 0.84 | 0.467 | 0.645 | 0.646 | 0.611 | 0.564 | 0.496 | 0.69 | 0.798 | 0.733 | 0.559 | 0.55 | 0.426 | 0.441 | 0.434 |
| EKVX | 1.1 | 1.02 | 1.1 | 0.972 | 0.642 | 0.929 | 0.831 | 0.88 | 0.832 | 0.563 | 0.885 | 0.933 | 0.869 | 0.72 | 0.475 | 0.547 | 0.599 | 0.413 |
| NCI-H520 | 1.09 | 1.08 | 1.07 | 1.08 | 0.373 | 0.383 | 0.352 | 0.332 | 0.328 | 0.292 | 0.928 | 0.94 | 0.914 | 0.759 | 0.279 | 0.221 | 0.153 | 0.131 |
| LOU-NH91 | 0.893 | 0.998 | 0.989 | 0.92 | 0.769 | 0.928 | 0.959 | 0.942 | 0.864 | 0.745 | 0.783 | 0.691 | 0.707 | 0.533 | 0.571 | 0.597 | 0.555 | 0.43 |
| COR-L23 | 1.16 | 0.978 | 0.933 | 1.04 | 0.543 | 0.391 | 0.371 | 0.317 | 0.353 | 0.271 | 0.935 | 0.697 | 0.743 | 0.521 | 0.514 | 0.546 | 0.464 | 0.322 |
| NCI-H1437 | 1.05 | 1.08 | 1.07 | 1.01 | 0.314 | 0.645 | 0.682 | 0.613 | 0.681 | 0.239 | 0.867 | 0.961 | 0.99 | 0.634 | 0.335 | 0.427 | 0.298 | 0.242 |
| EPLC-272H | 1.27 | 1.07 | 1.12 | 1.01 | 0.721 | 0.732 | 0.807 | 0.547 | 0.721 | 0.58 | 0.943 | 0.952 | 1.16 | 0.804 | 0.381 | 0.365 | 0.264 | 0.314 |
| NCI-H1666 | 0.867 | 0.908 | 0.804 | 0.817 | 0.681 | 0.757 | 0.74 | 0.729 | 0.804 | 0.755 | 1.06 | 1 | 1.01 | 0.49 | 0.822 | 0.791 | 0.75 | 0.711 |
